These are literature values, as cited in PMC7922564, “Molecular Insights into an Antibiotic Enhancer Action of New Morpholine-Containing 5-Arylideneimidazolones in the Fight against MDR Bacteria” (International Journal of Molecular Sciences, 2021).

Values after ≈ are worked out from the molar mass of the structure shown.

Data set [1] concerns S. aureus ATCC 25923. The arrangement: method as in earlier work. Conditions: unstarred value; published previously; cited from earlier work.
The test system of data set [2] is S. aureus ATCC 25923. Details: method as in earlier work. To be noted: published previously, cited from earlier work.
In data set [3] the test system is K. aerogenes Ea-294, Ea-308. Details: method as in earlier work. Conditions: doxycycline, chloramphenicol, norfloxacin, already published, cited from earlier work.
Data set [4] concerns K. aerogenes Ea-289. The arrangement: method as in earlier work. Conditions: doxycycline, chloramphenicol, norfloxacin, already published, cited from earlier work.
For data set [5], the system named is K. aerogenes CM-64. Details: method as in earlier work. Conditions: doxycycline, chloramphenicol, norfloxacin, already published, cited from earlier work.
For data set [6], the system named is AcrAB-TolC efflux pump in K. aerogenes strain Ea-289. The arrangement: method as in PMID 30691112. Conditions: compound 100 µM; previously described; cited from earlier work.

Turning to `NC1=N/C(=C\c2cccc(Oc3ccccc3)c2)C(=O)N1CCCN1CCOCC1` [Compound 16], the MIC value in data set [1] was 125 µM (≈ 50.8 µg/mL). Also, the “MIC reduction” value in data set [2] (oxacillin alone to oxacillin + compound), in data set [3] (erythromycin + compound), in data set [4] (erythromycin + compound) and in data set [5] (erythromycin + compound) was “No effect” throughout. Moreover, the “A (activity gain)” value in data set [2] (oxacillin), in data set [3] (erythromycin), in data set [4] (erythromycin) and in data set [5] (erythromycin) was 1 in each case. Moreover, the “Inhibition efficiency (IE) towards extrusion of 1,2'-dNA” value in data set [6] is given as 61%.
